Data from the supplement of paper PMC4862054.
Where “and” joins values, the source holds several entries; their conditions need not be identical. Identical values can stand only once.

Experiments:
Conditions in all cases: incubation time: 72 h
DU-4475 [1] = test: normalised viability (% of control), CellTiter-Blue; higher = more viable cells (about 100 = DMSO control)
Procedure: (§1)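 DSRT, CellTiter-Blue viability, 72 h incubation. Signal is normalised to DMSO and benzethonium chloride controls. Value is the normalised response at dose 9.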

MDA-MB-453 [2] = test: as above
Procedure: as §1

HDQ-P1 [3] = test: as above
Procedure: as §1

CAL-148 [4] = test: as above
Procedure: as §1

CAL-51 [5] = test: as above
Procedure: as §1

CAL-85-1 [6] = test: as above
Procedure: as §1

MDA-MB-231 [7] = test: normalised viability (% of control), CellTiter-Blue; higher = more viable cells (100 = DMSO, 0 = benzethonium chloride kill control)
Procedure: (§2)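 DSRT, CellTiter-Blue viability, 72 h incubation. Signal is normalised to DMSO and benzethonium chloride controls. Value is the normalised response at dose 1.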

DU-4475 [8] = test: as above
Procedure: as §2

CAL-120 [9] = test: as above
Procedure: as §2

MDA-MB-453 [10] = test: as above
Procedure: as §2

HCC1143 [11] = test: as above
Procedure: as §2

MDA-MB-436 [12] = test: as above
Procedure: as §2

HDQ-P1 [13] = test: as above
Procedure: as §2

BT-474 [14] = test: as above
Procedure: as §2

MDA-MB-468 [15] = test: as above
Procedure: as §2

Hs578T [16] = test: as above
Procedure: as §2

MFM-223 [17] = test: as above
Procedure: as §2

SK-BR-3 [18] = test: as above
Procedure: as §2

CAL-148 [19] = test: as above
Procedure: as §2

CAL-51 [20] = test: as above
Procedure: as §2

HCC1599 [21] = test: as above
Procedure: as §2

CAL-85-1 [22] = test: as above
Procedure: as §2

BT-549 [23] = test: as above
Procedure: as §2

HCC1937 [24] = test: as above
Procedure: as §2

MDA-MB-231 [25] = test: normalised response (% of control), CellTiter-Glo; higher = more viable cells (100 = DMSO, 0 = benzethonium chloride kill control)
How it was run: (§3)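 Each value is the plate-normalised signal at one concentration of the series. Breast cancer cell lines (20 µl suspension) were incubated 72 h in 384-well plates with compound at 5 concentrations in 10-fold steps over a compound-specific 10,000-fold range. CellTox Green and then CellTiter-Glo were read, and each plate was scaled to 0.1 % DMSO (100) and a positive kill control (0).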

DU-4475 [26] = test: as above
How it was run: as §3

CAL-120 [27] = test: as above
How it was run: as §3

MDA-MB-453 [28] = test: as above
How it was run: as §3

HCC1143 [29] = test: as above
How it was run: as §3

MDA-MB-436 [30] = test: as above
How it was run: as §3

HDQ-P1 [31] = test: as above
How it was run: as §3

MCF-10A = test: as above
How it was run: as §3

BT-474 [32] = test: as above
How it was run: as §3

MDA-MB-468 [33] = test: as above
How it was run: as §3

Hs578T [34] = test: as above
How it was run: as §3

MFM-223 [35] = test: as above
How it was run: as §3

SK-BR-3 [36] = test: as above
How it was run: as §3

CAL-148 [37] = test: as above
How it was run: as §3

CAL-51 [38] = test: as above
How it was run: as §3

HCC1599 [39] = test: as above
How it was run: as §3

CAL-85-1 [40] = test: as above
How it was run: as §3

BT-549 [41] = test: as above
How it was run: as §3

HCC1937 [42] = test: as above
How it was run: as §3

SMILES: COc1cc2/c(=N/c3ccc(Br)cc3F)nc[nH]c2cc1OCC1CCN(C)CC1 [Vandetanib] (10000 nM)
- normalised viability (DU-4475 [1]): 111%
- normalised viability (MDA-MB-453 [2]): 17.4%
- normalised viability (HDQ-P1 [3]): 8.94%
- normalised viability (CAL-148 [4]): 59.6%
- normalised viability (CAL-51 [5]): 15.3%
- normalised viability (CAL-85-1 [6]): 17.3%

SMILES: COC(=O)c1ccc2c(c1)NC(=O)/C2=C(\Nc1ccc(N(C)C(=O)CN2CCN(C)CC2)cc1)c1ccccc1 [BIBF 1120] (1 nM)
- normalised viability (MDA-MB-231 [7]): 129%
- normalised viability (DU-4475 [8]): 112%
- normalised viability (CAL-120 [9]): 83.6%
- normalised viability (MDA-MB-453 [10]): 101%
- normalised viability (HCC1143 [11]): 95.7%
- normalised viability (MDA-MB-436 [12]): 114%
- normalised viability (HDQ-P1 [13]): 114%
- normalised viability (BT-474 [14]): 124%
- normalised viability (MDA-MB-468 [15]): 108%
- normalised viability (Hs578T [16]): 109%
- normalised viability (MFM-223 [17]): 91.8%
- normalised viability (SK-BR-3 [18]): 93.3%
- normalised viability (CAL-148 [19]): 105%
- normalised viability (CAL-51 [20]): 99.7%
- normalised viability (HCC1599 [21]): 87.2%
- normalised viability (CAL-85-1 [22]): 94.3%
- normalised viability (BT-549 [23]): 119%
- normalised viability (HCC1937 [24]): 117%

SMILES: CO[C@H]1C[C@@H]2CC[C@@H](C)[C@@](O)(O2)C(=O)C(=O)N2CCCC[C@H]2C(=O)O[C@H]([C@H](C)C[C@@H]2CC[C@@H](OP(C)(C)=O)[C@H](OC)C2)CC(=O)[C@H](C)/C=C(\C)[C@@H](O)[C@@H](OC)C(=O)[C@H](C)C[C@H](C)/C=C/C=C/C=C/1C [Ridaforolimus] (1000 nM)
- normalised viability (DU-4475 [1]): 6.1%
- normalised viability (MDA-MB-453 [2]): 21.4%
- normalised viability (HDQ-P1 [3]): 81.7%
- normalised viability (CAL-148 [4]): 35.4%
- normalised viability (CAL-51 [5]): 31.3%
- normalised viability (CAL-85-1 [6]): 50.6%

SMILES: COC(=O)c1ccc2c(c1)NC(=O)/C2=C(\Nc1ccc(N(C)C(=O)CN2CCN(C)CC2)cc1)c1ccccc1 [BIBF 1120] (10000 nM)
- normalised viability (DU-4475 [1]): 24.8%
- normalised viability (MDA-MB-453 [2]): 2.37%
- normalised viability (HDQ-P1 [3]): 56.6%
- normalised viability (CAL-148 [4]): 70.5%
- normalised viability (CAL-51 [5]): 42.3%
- normalised viability (CAL-85-1 [6]): 53.9%

SMILES: Cc1cc(Nc2cc(CN3CCOCC3)c3nc(C)c(Cc4ccc(Cl)cc4F)n3n2)n[nH]1 (10000 nM)
- normalised viability (DU-4475 [1]): 36.9%
- normalised viability (MDA-MB-453 [2]): 36%
- normalised viability (HDQ-P1 [3]): 15%
- normalised viability (CAL-148 [4]): 62.4%
- normalised viability (CAL-51 [5]): 12.5%
- normalised viability (CAL-85-1 [6]): 33.1%

SMILES: COc1cc2ncnc(Nc3ccc(F)c(Cl)c3)c2cc1OCCCN1CCOCC1 [Gefitinib] (1 nM)
- normalised response (MDA-MB-231 [25]): 97.2%
- normalised response (DU-4475 [26]): 99.3%
- normalised response (CAL-120 [27]): 97.6%
- normalised response (MDA-MB-453 [28]): 109%
- normalised response (HCC1143 [29]): 102%
- normalised response (MDA-MB-436 [30]): 85.5%
- normalised response (HDQ-P1 [31]): 94.4%
- normalised response (MCF-10A): 98.8%
- normalised response (BT-474 [32]): 97.7%
- normalised response (MDA-MB-468 [33]): 105%
- normalised response (Hs578T [34]): 99%
- normalised response (MFM-223 [35]): 105%
- normalised response (SK-BR-3 [36]): 108%
- normalised response (CAL-148 [37]): 107%
- normalised response (CAL-51 [38]): 93.1%
- normalised response (HCC1599 [39]): 99.2%
- normalised response (CAL-85-1 [40]): 101%
- normalised response (BT-549 [41]): 94.8%
- normalised response (HCC1937 [42]): 91.6%
- normalised viability (MDA-MB-231 [7]): 94.2% and 90.6%
- normalised viability (DU-4475 [8]): 104% and 98.6%
- normalised viability (CAL-120 [9]): 77.2% and 85.9%
- normalised viability (MDA-MB-453 [10]): 97.3% and 100%
- normalised viability (HCC1143 [11]): 73.7% and 90.5%
- normalised viability (MDA-MB-436 [12]): 92.2% and 90.9%
- normalised viability (HDQ-P1 [13]): 108% and 86.3%
- normalised viability (MDA-MB-468 [15]): 90% and 110%
- normalised viability (MFM-223 [17]): 89.3% and 83.4%
- normalised viability (SK-BR-3 [18]): 87.4% and 97.4%
- normalised viability (CAL-148 [19]): 107% and 106%
- normalised viability (CAL-51 [20]): 108% and 107%
- normalised viability (HCC1599 [21]): 85.7% and 96.3%
- normalised viability (CAL-85-1 [22]): 85.3% and 81.5%
- normalised viability (BT-549 [23]): 120% and 111%
- normalised viability (HCC1937 [24]): 91.6% and 89.4%
